Assays:
[1] = Selectivity index, ratio of IC50 for inhibition of HCV 2b NS3/4A protease to IC50 for inhibition of HCV 2b NS3/4A protease preincubated for 45 mins in presence of compound
[2] = Selectivity index, ratio of IC50 for inhibition of HCV 1a NS3/4A protease to IC50 for inhibition of HCV 1a NS3/4A protease preincubated for 45 mins in presence of compound
[3] = AUC in dog at 3 mg/kg, po or 1 mg/kg, iv; assay type: ADME, organism-based, Canis lupus familiaris; set-up: dose 3 mg/kg; settings: in vivo
[4] = Inhibition of HCV 4a NS3/4A protease preincubated for 45 mins in presence of compound; set-up: species or system Hepatitis C virus subtype 4a
[5] = Inhibition of HCV 6a NS3/4A protease preincubated for 45 mins in presence of compound; set-up: species or system Hepatitis C virus subtype 6a
[6] = Inhibition of HCV 5a NS3/4A protease preincubated for 45 mins in presence of compound; set-up: species or system Hepatitis C virus subtype 5a
[7] = Inhibition of HCV 1a NS3/4A protease; set-up: species or system Hepatitis C virus subtype 1a
[8] = Inhibition of HCV 3a NS3/4A protease; set-up: species or system Hepatitis C virus subtype 3a
[9] = Inhibition of HCV 2b NS3/4A protease preincubated for 45 mins in presence of compound; set-up: species or system Hepatitis C virus subtype 2b
[10] = Inhibition of recombinant full length NS3/4A R155K mutant protease in Hepatitis C virus subtype 1a replicon infected in human HuH7 cells preincubated for 3 days followed by substrate addition and measured after 2 hrs by renilla luciferase reporter gene assay; assay type: cell-based; settings: Huh-7
Cytochrome P450 3A4 [11] = target: T1, Cytochrome P450 3A4 (Homo sapiens, UniProt P08684); assay: Inhibition of human CYP3A4 in human pooled liver microsomes in presence of midazolam as substrate preincubated for 30 mins in presence of NADPH followed by addition of substrate by LC-MS/MS analysis; assay type: ADME
T1 sequence (P08684 whole entry): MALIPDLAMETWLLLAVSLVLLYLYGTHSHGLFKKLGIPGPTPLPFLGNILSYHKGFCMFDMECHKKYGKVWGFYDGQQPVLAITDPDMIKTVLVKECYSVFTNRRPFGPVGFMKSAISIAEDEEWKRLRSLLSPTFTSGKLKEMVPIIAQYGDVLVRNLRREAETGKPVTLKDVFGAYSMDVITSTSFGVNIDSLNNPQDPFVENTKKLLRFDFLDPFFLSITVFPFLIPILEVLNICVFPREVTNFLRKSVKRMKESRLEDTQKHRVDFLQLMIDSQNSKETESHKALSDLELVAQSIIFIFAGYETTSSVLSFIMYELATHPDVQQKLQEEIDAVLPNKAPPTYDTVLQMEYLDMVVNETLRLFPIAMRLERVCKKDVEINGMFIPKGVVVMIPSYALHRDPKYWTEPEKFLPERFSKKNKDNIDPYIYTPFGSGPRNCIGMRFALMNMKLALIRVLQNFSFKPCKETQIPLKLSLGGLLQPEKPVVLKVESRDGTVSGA

[12] = Inhibition of HCV 2a NS3/4A protease; set-up: species or system Hepatitis C virus subtype 2a
[13] = Inhibition of HCV 1b NS3/4A protease; set-up: species or system Hepatitis C virus subtype 1b
[14] = Inhibition of HCV 4a NS3/4A protease; set-up: species or system Hepatitis C virus subtype 4a
[15] = Selectivity index, ratio of IC50 for inhibition of HCV 1b NS3/4A protease to IC50 for inhibition of HCV 1b NS3/4A protease preincubated for 45 mins in presence of compound
Cytochrome P450 3A4 [16] = target: T1, Cytochrome P450 3A4; assay: Inhibition of human CYP3A4 in human pooled liver microsomes at 0.002 to 40 uM in presence of midazolam as substrate preincubated in presence of NADPH followed by addition of substrate by LC-MS/MS analysis; assay type: ADME; settings: TDE = time-dependent effect, dose 0.002-40 µM, time <=30 min
[17] = Inhibition of recombinant full length NS3/4A protease in Hepatitis C virus subtype 3a replicon infected in human HuH7 cells preincubated for 3 days followed by substrate addition and measured after 2 hrs by renilla luciferase reporter gene assay; assay type: cell-based; settings: Huh-7
[18] = Inhibition of recombinant full length NS3/4A protease in Hepatitis C virus subtype 1a replicon infected in human HuH7 cells preincubated for 3 days followed by substrate addition and measured after 2 hrs by renilla luciferase reporter gene assay; assay type: cell-based; settings: Huh-7
[19] = Half-life in rat at 5 mg/kg, po or 1 mg/kg, iv; assay type: ADME, organism-based; settings: in vivo
Cytochrome P450 3A4 [20] = target: T1, Cytochrome P450 3A4; assay: Inhibition of human CYP3A4 in human pooled liver microsomes at 0.002 to 40 uM in presence of testosterone as substrate preincubated in presence of NADPH followed by addition of substrate by LC-MS/MS analysis; assay type: ADME; settings: TDE = time-dependent effect, dose 0.002-40 µM, time <=30 min
[21] = AUC (0 to 24 hrs) in rat at 5 mg/kg, po; assay type: ADME, organism-based; set-up: time < 24 hr, route oral, dose 5 mg/kg; settings: in vivo
[22] = Selectivity index, ratio of IC50 for inhibition of HCV 2a NS3/4A protease to IC50 for inhibition of HCV 2a NS3/4A protease preincubated for 45 mins in presence of compound
[23] = Half-life in dog at 3 mg/kg, po or 1 mg/kg, iv; assay type: ADME, organism-based, Canis lupus familiaris; settings: in vivo
[24] = Inhibition of recombinant full length NS3/4A protease in Hepatitis C virus subtype 3a infected in human HuH7 cells using Ac-Asp-Glu-Asp (EDANS)-Glu-Glu-Abu-(COO) Ala-Ser-Lys (DABCYL)-NH2 as substrate by FRET assay; settings: Huh-7
[25] = Metabolic stability in human liver microsomes assessed as half-life incubated for 5 to 45 mins in presence of NADPH by LC-MS analysis; assay type: ADME, Microsome; settings: time 5-45 min
[26] = Half-life in cynomolgus monkey at 3 mg/kg, po or 1 mg/kg, iv; assay type: ADME, organism-based, Macaca fascicularis; settings: in vivo
[27] = Clearance in cynomolgus monkey at 3 mg/kg, po or 1 mg/kg, iv; assay type: ADME, organism-based, Macaca fascicularis; settings: in vivo
[28] = Inhibition of HCV 1a NS3/4A protease preincubated for 45 mins in presence of compound; set-up: species or system Hepatitis C virus subtype 1a
[29] = Clearance in rat at 5 mg/kg, po or 1 mg/kg, iv; assay type: ADME, organism-based; settings: in vivo
[30] = Drug concentration in dog plasma at 3 mg/kg, po measured upto 24 hrs; assay type: ADME, organism-based, Canis lupus familiaris; settings: read-out: Ct
[31] = Drug concentration in rat liver at 5 mg/kg, po measured upto 24 hrs; assay type: ADME, organism-based; settings: read-out: Ct
[32] = Inhibition of HCV 1b NS3/4A protease preincubated for 45 mins in presence of compound; set-up: species or system Hepatitis C virus subtype 1b
Cytochrome P450 3A4 [33] = target: T1, Cytochrome P450 3A4; assay: Inhibition of human CYP3A4 in human pooled liver microsomes in presence of testosterone as substrate preincubated for 30 mins in presence of NADPH followed by addition of substrate by LC-MS/MS analysis; assay type: ADME
[34] = Inhibition of HCV 5a NS3/4A protease; set-up: species or system Hepatitis C virus subtype 5a
[35] = Half life in rat at 1 mg/kg, iv; assay type: ADME, organism-based; settings: in vivo
[36] = Selectivity index, ratio of IC50 for inhibition of HCV 3a NS3/4A protease to IC50 for inhibition of HCV 3a NS3/4A protease preincubated for 45 mins in presence of compound
[37] = Clearance in rat at 1 mg/kg, iv; assay type: ADME, organism-based; settings: in vivo
[38] = AUC in rat at 5 mg/kg, po or 1 mg/kg, iv; assay type: ADME, organism-based; set-up: dose 5 mg/kg; settings: in vivo
[39] = Inhibition of HCV 3a NS3/4A protease preincubated for 45 mins in presence of compound; set-up: species or system Hepatitis C virus subtype 3a
[40] = AUC in cynomolgus monkey at 3 mg/kg, po or 1 mg/kg, iv; assay type: ADME, organism-based, Macaca fascicularis; set-up: dose 3 mg/kg; settings: in vivo
Cytochrome P450 3A4 [41] = target: T1, Cytochrome P450 3A4; assay: Inhibition of human CYP3A4 in human pooled liver microsomes in presence of testosterone as substrate preincubated for 0 mins in presence of NADPH followed by addition of substrate by LC-MS/MS analysis; assay type: ADME
Cytochrome P450 3A4 [42] = target: T1, Cytochrome P450 3A4; assay: Inhibition of human CYP3A4 in human pooled liver microsomes in presence of midazolam as substrate preincubated for 0 mins in presence of NADPH followed by addition of substrate by LC-MS/MS analysis; assay type: ADME
[43] = Selectivity index, ratio of IC50 for inhibition of HCV 4a NS3/4A protease to IC50 for inhibition of HCV 4a NS3/4A protease preincubated for 45 mins in presence of compound
[44] = Inhibition of recombinant full length NS3/4A D168V mutant protease in Hepatitis C virus subtype 1b replicon infected in human HuH7 cells preincubated for 3 days followed by substrate addition and measured after 2 hrs by renilla luciferase reporter gene assay; assay type: cell-based; settings: Huh-7

Compound: CC[C@@H]1C[C@H](C)CC/C=C\[C@@H]2C[C@@]2(C(=O)NS(=O)(=O)C2(C)CC2)NC(=O)[C@@H]2C[C@@H](Oc3nccc4cc(OC)c(F)cc34)CN2C(=O)[C@H]1NC(=O)OC(C)(C)C(F)(F)F
- Selectivity Index [1]: 2
- Selectivity Index [2]: 4
- AUC [3]: 81 µM·h
- IC50 [4]: 0.1 nM
- IC50 [5]: 0.1 nM
- IC50 [6]: 0.1 nM
- IC50 [7]: 0.8 nM
- IC50 [8]: 5.6 nM
- IC50 [9]: 0.9 nM
- EC50 [10]: 11 nM
- IC50 (Cytochrome P450 3A4 [11]): 2850 nM
- IC50 [12]: 0.7 nM
- IC50 [13]: 0.6 nM
- IC50 [14]: 0.9 nM
- Selectivity Index [15]: 6
- inhibition (INH) (Cytochrome P450 3A4 [16]): Tde
- EC50 [17]: 14 nM
- EC50 [18]: 2.8 nM
- half-life [19]: 9.3 h
- inhibition (INH) (Cytochrome P450 3A4 [20]): Tde
- AUC(0-t) at 24 h [21]: 151 µM·h
- Selectivity Index [22]: 3.5
- half-life [23]: 8.2 h
- IC50 [24]: 6.3 nM
- half-life [25]: 0.467 h
- half-life [26]: 3 h
- clearance [27]: 9.3 mL/min/kg
- IC50 [28]: 0.2 nM
- clearance [29]: 0.3 mL/min/kg
- concentration at 24 h [30]: 0.838 µM
- concentration at 24 h [31]: 5.83 µM
- IC50 [32]: 0.1 nM
- IC50 (Cytochrome P450 3A4 [33]): 3020 nM
- IC50 [34]: 1 nM
- half-life [35]: 9.3 h
- Selectivity Index [36]: 1
- clearance [37]: 0.3 mL/min/kg
- AUC [38]: 241 µM·h
- IC50 [39]: 7.5 nM
- AUC [40]: 0.898 µM·h
- IC50 (Cytochrome P450 3A4 [41]): > 40000 nM
- IC50 (Cytochrome P450 3A4 [42]): > 40000 nM
- Selectivity Index [43]: 9
- EC50 [44]: 6 nM

Source: ChEMBL document CHEMBL4765464, “Discovery of BMS-986144, a Third-Generation, Pan-Genotype NS3/4A Protease Inhibitor for the Treatment of Hepatitis C Virus Infection” (J Med Chem, 2020)
